US7435832B2, “Crystals including a malic acid salt of a 3-pyrrole substituted 2-indolinone, and compositions thereof” (Pharmacia & Upjohn Company, priority 2001, dated 2008)
Structures can show the parent of a compound that is named as a salt.

Legend:
Format in all cases: physicochemical
[1] = Dynamic moisture sorption gravimetry (DMSG), hygroscopicity; details: for Water absorbed (moisture sorption): across the 0-90% relative humidity range, 25° C.
Experimental: X-ray diffraction (XRD) patterns were measured on a Scintag X2 diffractometer (Thermo ARL, Ecublens, Switzerland) equipped with a theta-theta goniometer. Melting points were determined using a TA Instruments 2920 differential scanning calorimeter (TA Instruments, New Castle, Del.) with standard crimped pans and a heating rate of 10° C./minute. Hygroscopicity was assessed by dynamic moisture sorption gravimetry (DMSG) using a Controlled Atmosphere Microbalance (Pharmacia Corp., Kalamazoo, Mich.). All chemicals used are available from Aldrich Chemical Co., Milwaukee, Wis., unless otherwise specified. N-[2-(diethylamino)ethyl]-5-[(5-fluoro-1,2-dihydro-2-oxo-3H-indol-3-ylidene)methyl]-2,4-dimethyl-1H-pyrrole-3-carboxamide was prepared as the free base by a procedure similar to that described in Example 80 of PCT International Publication No. WO 01/60814 (Tang et al.).
Dynamic Moisture Sorption Gravimetry (DMSG). DMSG isotherms were collected on the variable temperature controlled atmosphere microbalance. Approximately 10 mg samples were used in the balance. Samples were run as received. The humidity was sequentially set between 0 and 90% relative humidity (RH) in 3% RH steps. The mass was then measured every two minutes. The RH was changed to the next value when the mass of the sample was stable to within 0.5 microgram in 480 seconds. A Visual Basic program was used to control the data collection and export the information to an Excel spreadsheet.

[2] = Solubility in water; details: in water at 25° C.
Experimental: The solubility of Crystal Form I of the L-malic acid salt of N-[2-(diethylamino)ethyl]-5-[(5-fluoro-1,2-dihydro-2-oxo-3H-indol-3-ylidene)methyl]-2,4-dimethyl-1H-pyrrole-3-carboxamide was determined to be 5 mg/mL in water at 25° C.

[3] = Solid state stability study of bulk crystals (HPLC analysis, PXRD); details: for Purity (Area %) / Total Impurities (Area %): HPLC
Description: As referred to in the present application, “stable” in bulk drug stability tests means that at least about 97% by weight, preferably at least about 98% by weight, and more preferably at least about 99% by weight of the bulk drug remains unchanged after storage under the indicated conditions for the indicated time.
A solid state stability study of Crystal Form I of the L-malic acid salt of N-[2-(diethylamino)ethyl]-5-[(5-fluoro-1,2-dihydro-2-oxo-3H-indol-3-ylidene)methyl]-2,4-dimethyl-1H-pyrrole-3-carboxamide was also conducted (Table 2).

Row | Structure (SMILES) | Water absorbed (moisture sorption) [1] | solubility [2] | Purity (Area %) ([3]; 2 weeks at 60° C./75% RH) | Total Impurities (Area %) ([3]; 2 weeks at 60° C./75% RH) | Purity (Area %) ([3]; 2 weeks at 60° C./ambient RH) | Total Impurities (Area %) ([3]; 2 weeks at 60° C./ambient RH) | Purity (Area %) ([3]; 2 weeks at 80° C./ambient RH) | Total Impurities (Area %) ([3]; 2 weeks at 80° C./ambient RH) | Purity (Area %) ([3]; 4 weeks at 60° C./75% RH) | Total Impurities (Area %) ([3]; 4 weeks at 60° C./75% RH) | Purity (Area %) ([3]; 4 weeks at 60° C./ambient RH) | Total Impurities (Area %) ([3]; 4 weeks at 60° C./ambient RH) | Purity (Area %) ([3]; 4 weeks at 80° C./ambient RH) | Total Impurities (Area %) ([3]; 4 weeks at 80° C./ambient RH) | Purity (Area %) ([3]; Initial) | Total Impurities (Area %) ([3]; Initial) | Degradation after aging ([3]; four weeks at 60° C./ambient RH, 60° C./75% RH and 80° C./ambient RH) | Change in crystal form by powder X-ray diffraction ([3]; two-week stability samples) | Water absorbed upon exposure to humidity ([1]; 80% relative humidity)
1 | CCN(CC)CCNC(=O)c1c(C)[nH]c(/C=C2\C(=O)Nc3ccc(F)cc32)c1C [Crystal Form I, L-malic acid salt of N-[2-(diethylamino)ethyl]-5-[(5-fluoro-1,2-dihydro-2-oxo-3H-indol-3-ylidene)methyl]-2,4-dimethyl-1H-pyrrole-3-carboxamide] | less than 0.5% | 5000 µg/mL | 99.6 Area % | 1.2 Area % | 98.2 Area % | 1.1 Area % | 99.5 Area % | 1.2 Area % | 100.1 Area % | 2.2 Area % | 100.4 Area % | 1.2 Area % | 98.0 Area % | 3.1 Area % | 99.7 Area % | 1.5 Area % | no significant degradation | no change in crystal form | 
2 | CCN(CC)CCNC(=O)c1c(C)[nH]c(/C=C2\C(=O)Nc3ccc(F)cc32)c1C [Crystal Form II, L-malic acid salt of N-[2-(diethylamino)ethyl]-5-[(5-fluoro-1,2-dihydro-2-oxo-3H-indol-3-ylidene)methyl]-2,4-dimethyl-1H-pyrrole-3-carboxamide] | over 15% |  |  |  |  |  |  |  |  |  |  |  |  |  |  |  |  |  | at least 5 % by weight
